Literature values as cited in patent US20100322892A1, “PESTICIDE COMPOSITIONS AND APPLICATORS” (BASF CORPORATION, priority 2009, published 2010).

Tests used:
[1] = test system: ants; details: in vivo
[2] = test system: termites; details: in vivo

N#Cc1nn(-c2c(Cl)cc(C(F)(F)F)cc2Cl)c(N)c1[S+]([O-])C(F)(F)F (racemic) [fipronil, (±)-5-amino-1-(2,6-dichloro-α,α,α-trifluoro-p-tolyl)-4-trifluoromethylsulfinylpyrazole-3-carbonitrile]
Dose toxic to ants [1]: about 1 nanogram per ant
Dose toxic to termites [2]: 2 nanograms per termite
